Key:
Assay type in all cases: in vivo
Ambrosia elatior = assay: greenhouse post-emergence treatment, AMBEL; settings: Ambrosia artemisiifolia, 480 h, 20 DAT
Method in brief: (§1)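 Ratings of 0 to 100 reflect above-ground destruction versus normal growth after 2 to 4 weeks. Actives were sprayed post-emergence as water-diluted 10% emulsion concentrates onto plants 3–15 cm high.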

Brachiaria decumbens = assay: greenhouse post-emergence treatment, BRADC; settings: Urochloa decumbens, 480 h, 20 DAT; for inhibition at 500000 µg/mL (stock): sc, BRADC
Method in brief: as §1

Lolium multiflorum = assay: greenhouse post-emergence treatment, LOLMU; settings: Lolium multiflorum, 480 h, 20 DAT, read-out: % activity
Method in brief: (§2)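 Scoring ran on a 0-100 scale, 100 meaning no emergence or destroyed above-ground parts, over a 2-4 week period; Colby formula E=X+Y−(X·Y/100) gave expected mixture effects. Species grew separately in loamy sand (about 3.0% humus) at 10-25° C or 20-35° C, with water as solvent.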

Avena fatua = assay: greenhouse post-emergence treatment, AVEFA; settings: Avena fatua, 480 h, 20 DAT
Method in brief: as §2

Matricaria chamomilla = assay: greenhouse post-emergence treatment, MATCH; settings: Matricaria chamomilla, sc, 480 h, MATCH, 20 DAT
Method in brief: (§3)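 Seeds sown per species in pots of loamy sand; seedlings either grown in place or transplanted days before treatment. Post-emergence spray of water-based liquor at 3–15 cm height. Injury rated 0–100 over 2 to 4 weeks.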

Polygonum convolvulus = assay: greenhouse post-emergence treatment, POLCO; settings: Fallopia convolvulus, 480 h, 20 DAT; for inhibition at 500000 µg/mL (stock): sc, POLCO
Method in brief: as §3

Bromus sterilis = assay: greenhouse post-emergence treatment, BROST; settings: Bromus sterilis, 480 h, 20 DAT; for inhibition at 500000 µg/mL (stock): sc, BROST
Method in brief: as §2

Digitaria sanguinalis = assay: greenhouse post-emergence treatment, DIGSA; settings: Digitaria sanguinalis, 480 h, 20 DAT, read-out: % activity
Method in brief: as §2

Echinocloa crus-galli = assay: greenhouse post-emergence treatment, ECHCG; settings: Echinochloa crus-galli, 480 h, 20 DAT, flufenacet solo 31.25 gai/ha
Method in brief: as §3

Setaria viridis = assay: greenhouse post-emergence treatment, SETVI; settings: Setaria viridis, 480 h, 20 DAT; for inhibition at 500000 µg/mL (stock): sc, SETVI
Method in brief: as §2

Poa annua = assay: greenhouse post-emergence treatment, POAAN; settings: Poa annua, 480 h, 20 DAT, flufenacet solo 31.25 gai/ha
Method in brief: as §1

[1] = solo flufenacet (SC 500 g/l) 31.25 gai/ha
[2] = solo flufenacet (SC 500 g/l) 62.5 gai/ha
[3] = solo flufenacet (SC 500 g/l) 125 gai/ha
[4] = solo flufenacet (SC 500 g/l) 250 gai/ha

CC(C)N(C(=O)COc1nnc(C(F)(F)F)s1)c1ccc(F)cc1 [flufenacet]
55%: inhibition at 125 g/ha (Setaria viridis; flufenacet solo 125 gai/ha) | inhibition at 500000 µg/mL (stock) (Setaria viridis; [3])
20%: inhibition at 31.25 g/ha (Lolium multiflorum; flufenacet solo 31.25 gai/ha) | inhibition at 125 g/ha (Digitaria sanguinalis; flufenacet solo 125 gai/ha)
80%: inhibition at 250 g/ha (Bromus sterilis; flufenacet solo 250 gai/ha) | inhibition at 500000 µg/mL (stock) (Bromus sterilis; [4])
85%: inhibition at 125 g/ha (Lolium multiflorum; flufenacet solo 125 gai/ha) | inhibition at 250 g/ha (Lolium multiflorum; flufenacet solo 250 gai/ha)
30%: inhibition at 125 g/ha (Ambrosia elatior; flufenacet solo 125 gai/ha) | inhibition at 31.25 g/ha (Avena fatua; flufenacet solo 31.25 gai/ha, read-out: % activity) | inhibition at 62.5 g/ha (Polygonum convolvulus; flufenacet solo 62.5 gai/ha) | inhibition at 125 g/ha (Polygonum convolvulus; flufenacet solo 125 gai/ha) | inhibition at 500000 µg/mL (stock) (Polygonum convolvulus; [2]) | inhibition at 500000 µg/mL (stock) (Polygonum convolvulus; [3])
10%: inhibition at 62.5 g/ha (Digitaria sanguinalis; flufenacet solo 62.5 gai/ha)
0%: inhibition at 62.5 g/ha (Ambrosia elatior; flufenacet solo 62.5 gai/ha) | inhibition at 31.25 g/ha (Brachiaria decumbens; flufenacet solo 31.25 gai/ha) | inhibition at 62.5 g/ha (Brachiaria decumbens; flufenacet solo 62.5 gai/ha) | inhibition at 125 g/ha (Brachiaria decumbens; flufenacet solo 125 gai/ha) | inhibition at 500000 µg/mL (stock) (Brachiaria decumbens; [1]) | inhibition at 500000 µg/mL (stock) (Brachiaria decumbens; [2]) | inhibition at 500000 µg/mL (stock) (Brachiaria decumbens; [3]) | inhibition at 500000 µg/mL (stock) (Matricaria chamomilla; [1]) | inhibition at 500000 µg/mL (stock) (Matricaria chamomilla; [2]) | inhibition at 31.25 g/ha (Polygonum convolvulus; flufenacet solo 31.25 gai/ha) | inhibition at 500000 µg/mL (stock) (Polygonum convolvulus; [1])
50%: inhibition at 62.5 g/ha (Lolium multiflorum; flufenacet solo 62.5 gai/ha) | inhibition at 500000 µg/mL (stock) (Matricaria chamomilla; [3]) | inhibition at 500000 µg/mL (stock) (Polygonum convolvulus; [4])
70%: inhibition at 250 g/ha (Ambrosia elatior; flufenacet solo 250 gai/ha) | inhibition at 31.25 g/ha (Poa annua)
25%: inhibition at 31.25 g/ha (Echinocloa crus-galli)
35%: inhibition at 250 g/ha (Brachiaria decumbens; flufenacet solo 250 gai/ha) | inhibition at 500000 µg/mL (stock) (Brachiaria decumbens; [4]) | inhibition at 62.5 g/ha (Setaria viridis; flufenacet solo 62.5 gai/ha) | inhibition at 500000 µg/mL (stock) (Setaria viridis; [2])
65%: inhibition at 62.5 g/ha (Avena fatua; flufenacet solo 62.5 gai/ha) | inhibition at 125 g/ha (Avena fatua; flufenacet solo 125 gai/ha, read-out: % activity) | inhibition at 125 g/ha (Bromus sterilis; flufenacet solo 125 gai/ha) | inhibition at 500000 µg/mL (stock) (Bromus sterilis; [3]) | inhibition at 250 g/ha (Digitaria sanguinalis; flufenacet solo 250 gai/ha)

Source: patent publication US10966426B2, “Herbicidal compositions comprising phenylpyrimidines” (BASF SE, priority 2016, dated 2021)
